Earlier results as cited in patent US20060018840A1, “Aerosolizable formulation comprising nicotine” (priority 2004, published 2006).

Q: With `CC(O)C(=O)O` (stereo not shown) [lactic acid] as the molecule, how does the pKa read?
A: Its pKa is “about 3.8”.
